Our source for the LC50 and inhibition values is ChEMBL document CHEMBL1155678, “Artoindonesianin C, a new xanthone derivative from Artocarpus teysmanii” (J Nat Prod, 2000).

In general, LC50 refers to the concentration that kills 50% of the test population. High values mean a less lethal substance, low ones a more lethal substance. Broadly, the inhibition is the percentage by which the read-out fell short of the control. Higher therefore signals strong suppression.

The nature of data set [1]: Toxicity against Artemia salina. As to conditions: in vivo. It counts as organism-based.
In the next data set the test system is Bombyx mori. Put plainly: Inhibition of leucine uptake in Bombyx mori larval midgut brush border membrane vesicles at 0.2 uM. The data set is classed as functional.

SMILES strings stand for the structures.

Turning to `C=C(C)c1cc2c(=O)c3c(O)cc4c(c3oc2c2c1C(O)(C(=O)OC)CC2=O)C=CC(C)(C)O4` (configuration not stated) [ARTOINDONESIANIN C], the LC50 in data set [1] was above 500 µg/mL. In the data set on Bombyx mori, this compound returned an inhibition of 20%.
